Here are results for 22 compounds from PubChem BioAssay AID330 (DTP/NCI, 2004).

Molecules are shown by their SMILES. Several values for one entry are separate records, joined by “and”; a condition that tells them apart may be missing. Equal values may be shown once. Inconclusive results and toxic doses are left out.

In the assay the test system is P388 leukemia ip, CD2F1 mice, survival T/C. The assay is described as follows: NCI In Vivo Anticancer Drug Screen. Data for tumor model P388 Leukemia (intraperitoneal) in CD2F1 (CDF1) mice. Particulars: endpoint: median survival time, higher = longer survival. The procedure, abridged:
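Mice carrying the transplanted tumor received test compound or vehicle. Survival was recorded in each group, and the value is the treated-group measurement divided by that of the vehicle-treated control group.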

[1] abbreviates: dose: 50.0 mg/kg/injection, schedule: Q01DX009 (ip), vehicle: saline with Tween-80.
Setting [2] is: dose: 50.0 mg/kg/injection, schedule: Q04DX003 (ip), vehicle: saline with Tween-80.
The mark [3] stands for this setting: dose: 100.0 mg/kg/injection, schedule: Q01DX009 (ip), vehicle: saline with Tween-80.
The mark [4] stands for this setting: dose: 100.0 mg/kg/injection, schedule: Q04DX003 (ip), vehicle: saline with Tween-80.
Setting [5] is: dose: 200.0 mg/kg/injection, schedule: Q04DX003 (ip), vehicle: saline with Tween-80.
The mark [6] stands for this setting: dose: 60.0 mg/kg/injection, schedule: Q01DX005 (ip), vehicle: Klucel (hydroxypropylcellulose) (HPC).
Setting [7] is: dose: 60.0 mg/kg/injection, schedule: Q01DX005 (ip), vehicle: saline with Tween-80.
The mark [8] stands for this setting: dose: 50.0 mg/kg/injection, schedule: Q01DX005 (ip), vehicle: Klucel (hydroxypropylcellulose) (HPC).
The mark [9] stands for this setting: dose: 100.0 mg/kg/injection, schedule: Q01DX005 (ip), vehicle: Klucel (hydroxypropylcellulose) (HPC).
[10] abbreviates: dose: 200.0 mg/kg/injection, schedule: Q01DX005 (ip), vehicle: Klucel (hydroxypropylcellulose) (HPC).
Setting [11] is: dose: 6.25 mg/kg/injection, schedule: Q01DX005 (ip), vehicle: Klucel (hydroxypropylcellulose) (HPC).
The mark [12] stands for this setting: dose: 12.5 mg/kg/injection, schedule: Q01DX005 (ip), vehicle: Klucel (hydroxypropylcellulose) (HPC).
Setting [13] is: dose: 25.0 mg/kg/injection, schedule: Q01DX005 (ip), vehicle: Klucel (hydroxypropylcellulose) (HPC).
[14] abbreviates: dose: 25.0 mg/kg/injection, schedule: Q01DX009 (ip), vehicle: distilled water + Tween-80.
Setting [15] is: dose: 120.0 mg/kg/injection, schedule: Q01DX005 (ip), vehicle: saline with Tween-80.
[16] abbreviates: dose: 240.0 mg/kg/injection, schedule: Q01DX005 (ip), vehicle: saline with Tween-80.

With `O=S(=O)(O)CN(CS(=O)(=O)O)c1nc(N(CS(=O)(=O)O)CS(=O)(=O)O)nc(N(CS(=O)(=O)O)CS(=O)(=O)O)n1`, the T/C runs as follows: (dose: 50.0 mg/kg/injection, schedule: Q01DX005 (ip), vehicle: saline with Tween-80) 92 % of control; (dose: 100.0 mg/kg/injection, schedule: Q01DX005 (ip), vehicle: saline with Tween-80) 99 % of control; (dose: 200.0 mg/kg/injection, schedule: Q01DX005 (ip), vehicle: saline with Tween-80) 101 % of control.

On to `Nc1nc(F)nc2c1ncn2C1OC(CO)C(O)C1O` (centres undefined), for which the T/C reads like this: (dose: 53.0 mg/kg/injection, schedule: Q03HX024 (ip), vehicle: saline with Tween-80) 253 % of control; (dose: 80.0 mg/kg/injection, schedule: Q03HX024 (ip), vehicle: saline with Tween-80) 283 % of control; (dose: 120.0 mg/kg/injection, schedule: Q03HX024 (ip), vehicle: saline with Tween-80) 123 % of control.

`CCCc1c(Cl)nc(Cl)nc1Cl`: the T/C by setting is: (dose: 25.0 mg/kg/injection, schedule: Q01DX009 (ip), vehicle: saline with Tween-80) 104 % of control; (dose: 25.0 mg/kg/injection, schedule: Q04DX003 (ip), vehicle: saline with Tween-80) 113 % of control; under setting [1], 118 % of control; under setting [2], 121 % of control; (dose: 66.0 mg/kg/injection, schedule: Q01DX009 (ip), vehicle: saline with Tween-80) 116 % of control; under setting [3], 100 % of control. Further, the T/C under setting [4] was 113 % of control.

As for `Cc1ccc(NC(=O)N(C)N=O)cc1`, the T/C is, setting by setting: under setting [1], 95 % of control; under setting [2], 100 % of control; under setting [3], 90 % of control; under setting [4], 100 % of control; (dose: 200.0 mg/kg/injection, schedule: Q01DX009 (ip), vehicle: saline with Tween-80) 90 % of control; under setting [5], 100 % of control.

`CCOC(=O)N/N=C(\C)c1nc2ccccc2[nH]1`: the T/C was 106 % of control (dose: 15.0 mg/kg/injection, schedule: Q01DX005 (ip), vehicle: saline with Tween-80); 108 % of control (dose: 30.0 mg/kg/injection, schedule: Q01DX005 (ip), vehicle: saline with Tween-80); 100 % of control under setting [6]; 101 % of control under setting [7].

Consider `COC(=O)C1=C(C(=O)OC)P(I)(c2ccccc2)(c2ccccc2)N(C)C1(c1ccccc1)c1ccccc1`, for which the T/C runs as follows: under setting [8], 100 % of control; under setting [9], 100 % of control; under setting [10], 90 % of control.

With `Cc1ccccc1C(=O)Nc1ccccc1-c1ccccc1N`, the T/C reads like this: (dose: 25.0 mg/kg/injection, schedule: Q04DX003 (ip), vehicle: saline) 95 % of control; (dose: 50.0 mg/kg/injection, schedule: Q04DX003 (ip), vehicle: saline) 99 % of control; (dose: 100.0 mg/kg/injection, schedule: Q04DX003 (ip), vehicle: saline) 90 % of control and 91 % of control.

Take `C=CCN(CC=C)CCSC(=S)NCCOC`: the T/C is 100 % of control under setting [4] and 95 % of control under setting [5].

`CC1OCN2CCCCC12` (centres undefined): the T/C (dose: 25.0 mg/kg/injection, schedule: Q01DX005 (ip), vehicle: saline) was 107 % of control and the T/C (dose: 50.0 mg/kg/injection, schedule: Q01DX005 (ip), vehicle: saline) was 118 % of control.

Consider `O=S1(=O)CS(=O)(=O)OCCO1`, for which the T/C (dose: 3.12 mg/kg/injection, schedule: Q01DX005 (ip), vehicle: Klucel (hydroxypropylcellulose) (HPC)) is 124 % of control; the T/C under setting [11] is 155 % of control; the T/C (dose: 9.0 mg/kg/injection, schedule: Q01DX005 (ip), vehicle: Klucel (hydroxypropylcellulose) (HPC)) is 162 % of control and 165 % of control; the T/C under setting [12] is 216 % of control; the T/C (dose: 14.0 mg/kg/injection, schedule: Q01DX005 (ip), vehicle: Klucel (hydroxypropylcellulose) (HPC)) was 191 % of control (2×) and 200 % of control; the T/C under setting [13] was 267 % of control and 270 % of control. The T/C (dose: 75.0 mg/kg/injection, schedule: Q01DX005 (ip), vehicle: Klucel (hydroxypropylcellulose) (HPC)) is 207 % of control and 588 % of control.

`CC1(c2ccccc2)Nc2ccccc2N(C(=O)c2ccccc2)C1c1ccccc1` (centres undefined): the T/C reads like this: under setting [6], 91 % of control; (dose: 120.0 mg/kg/injection, schedule: Q01DX005 (ip), vehicle: Klucel (hydroxypropylcellulose) (HPC)) 90 % of control.

As for `C=CCn1cc(F)c(=O)[nH]c1=O`, the T/C is, setting by setting: (dose: 30.0 mg/kg/injection, schedule: Q04DX002 (ip), vehicle: saline) 97 % of control; (dose: 60.0 mg/kg/injection, schedule: Q04DX002 (ip), vehicle: saline) 100 % of control; (dose: 120.0 mg/kg/injection, schedule: Q04DX002 (ip), vehicle: saline) 104 % of control; (dose: 150.0 mg/kg/injection, schedule: Q04DX002 (ip), vehicle: saline) 100 % of control; (dose: 240.0 mg/kg/injection, schedule: Q04DX002 (ip), vehicle: saline) 99 % of control; (dose: 300.0 mg/kg/injection, schedule: Q04DX002 (ip), vehicle: saline) 98 % of control. The T/C (dose: 600.0 mg/kg/injection, schedule: Q04DX002 (ip), vehicle: saline) is 106 % of control.

With `C[CH2][Sn]([Br])([CH2]C)[c]1ccccc1CN(C)C`, the T/C (dose: 12.5 mg/kg/injection, schedule: Q01DX009 (ip), vehicle: saline) is 100 % of control and 114 % of control; the T/C (dose: 25.0 mg/kg/injection, schedule: Q01DX009 (ip), vehicle: saline) is 100 % of control and 114 % of control; the T/C (dose: 50.0 mg/kg/injection, schedule: Q01DX009 (ip), vehicle: saline) is 117 % of control and 124 % of control.

`Cc1cc(Br)c(O)c(C(=NCC(C)N=C(c2ccccc2)c2cc(C)cc(Br)c2O)c2ccccc2)c1` (centres undefined): the T/C under setting [13] is 100 % of control, the T/C under setting [8] is 96 % of control, the T/C under setting [9] was 100 % of control and the T/C under setting [10] was 96 % of control.

In the case of `Nc1cc(=O)[nH]c(=S)[nH]1.[Pd]`, the T/C (dose: 12.5 mg/kg/injection, schedule: Q01DX009 (ip), vehicle: distilled water + Tween-80) is 108 % of control; the T/C under setting [14] was 97 % of control; the T/C (dose: 50.0 mg/kg/injection, schedule: Q01DX009 (ip), vehicle: distilled water + Tween-80) was 100 % of control; the T/C (dose: 100.0 mg/kg/injection, schedule: Q01DX009 (ip), vehicle: distilled water + Tween-80) was 95 % of control; the T/C (dose: 200.0 mg/kg/injection, schedule: Q01DX009 (ip), vehicle: distilled water + Tween-80) is 105 % of control.

For the compound `Nc1cccc(C(=O)c2cccc(N)c2)c1`, the T/C runs as follows: under setting [4], 100 % of control; under setting [5], 95 % of control; (dose: 400.0 mg/kg/injection, schedule: Q04DX003 (ip), vehicle: saline with Tween-80) 100 % of control.

`c1cc2c(cn1)Sc1cnccc1N2`: the T/C runs as follows: (dose: 6.25 mg/kg/injection, schedule: Q01DX009 (ip), vehicle: distilled water + Tween-80) 90 % of control; under setting [14], 107 % of control.

Consider `CN(C)C(=S)N/N=C/c1ccccn1`, for which the T/C was 115 % of control under setting [11] and 115 % of control under setting [12].

In the case of `COc1cc([N+](=O)[O-])c(S(=O)(=O)O)cc1N=N/C(=N/Nc1cc(S(=O)(=O)O)c([N+](=O)[O-])cc1OC)C(=O)Nc1ccccc1`, the T/C was 95 % of control under setting [8] and 93 % of control under setting [9].

For `Cc1ccc2occ3c(=O)n(C)nc-3c2c1`, the T/C runs as follows: under setting [7], 95 % of control; under setting [15], 91 % of control; under setting [16], 94 % of control.

For the compound `COc1cccc2c1C(=O)c1c(O)c3c(c(O)c1C2=O)CC(O)(/C=N/NS(=O)(=O)c1ccc(C)cc1)CC3OC1CC(N)C(O)C(C)O1` (centres undefined), the T/C is, setting by setting: (dose: 6.25 mg/kg/injection, schedule: Q01DX009 (ip), vehicle: other) 153 % of control; (dose: 12.5 mg/kg/injection, schedule: Q01DX009 (ip), vehicle: other) 178 % of control; (dose: 25.0 mg/kg/injection, schedule: Q01DX009 (ip), vehicle: other) 93 % of control.

In the case of `O=C1Nc2ccccc2C12OCCS2` (centres undefined), the T/C was 91 % of control under setting [7], 98 % of control under setting [15] and 92 % of control under setting [16].
